5 molecules from patent US20150045410A1, “METHOD OF REGULATING CFTR EXPRESSION AND PROCESSING” (University of Iowa Research Foundation, priority 2012, published 2015) can be followed below.

This data set concerns the target T1, CFTR-ΔF508 (Homo sapiens, UniProt P13569, DEL508-508).
T1 construct: expressed in transfected cells
The data set can be described thus: Cell surface ELISA (anti-HA) in HeLa cells stably expressing HA-tagged CFTR-ΔF508. It counts as cell-based. To be noted: for mutant CFTR at the cell surface (ELISA): HeLa cells, CFTR-ΔF508-3HA under CMV promoter, oligonucleotide transfection, 6, 12, 24 hrs; for surface display of ΔF508-CFTR (live cell-surface ELISA): HeLa-ΔF508-CFTR-HA cells treated daily with drugs, 72 hr post-treatment, vs DMSO (FIG. 28, 29). A general note: ELISA stands for enzyme-linked immunosorbent assay.

T1 sequence (P13569 with tags, fused parts or gaps DEL508-508): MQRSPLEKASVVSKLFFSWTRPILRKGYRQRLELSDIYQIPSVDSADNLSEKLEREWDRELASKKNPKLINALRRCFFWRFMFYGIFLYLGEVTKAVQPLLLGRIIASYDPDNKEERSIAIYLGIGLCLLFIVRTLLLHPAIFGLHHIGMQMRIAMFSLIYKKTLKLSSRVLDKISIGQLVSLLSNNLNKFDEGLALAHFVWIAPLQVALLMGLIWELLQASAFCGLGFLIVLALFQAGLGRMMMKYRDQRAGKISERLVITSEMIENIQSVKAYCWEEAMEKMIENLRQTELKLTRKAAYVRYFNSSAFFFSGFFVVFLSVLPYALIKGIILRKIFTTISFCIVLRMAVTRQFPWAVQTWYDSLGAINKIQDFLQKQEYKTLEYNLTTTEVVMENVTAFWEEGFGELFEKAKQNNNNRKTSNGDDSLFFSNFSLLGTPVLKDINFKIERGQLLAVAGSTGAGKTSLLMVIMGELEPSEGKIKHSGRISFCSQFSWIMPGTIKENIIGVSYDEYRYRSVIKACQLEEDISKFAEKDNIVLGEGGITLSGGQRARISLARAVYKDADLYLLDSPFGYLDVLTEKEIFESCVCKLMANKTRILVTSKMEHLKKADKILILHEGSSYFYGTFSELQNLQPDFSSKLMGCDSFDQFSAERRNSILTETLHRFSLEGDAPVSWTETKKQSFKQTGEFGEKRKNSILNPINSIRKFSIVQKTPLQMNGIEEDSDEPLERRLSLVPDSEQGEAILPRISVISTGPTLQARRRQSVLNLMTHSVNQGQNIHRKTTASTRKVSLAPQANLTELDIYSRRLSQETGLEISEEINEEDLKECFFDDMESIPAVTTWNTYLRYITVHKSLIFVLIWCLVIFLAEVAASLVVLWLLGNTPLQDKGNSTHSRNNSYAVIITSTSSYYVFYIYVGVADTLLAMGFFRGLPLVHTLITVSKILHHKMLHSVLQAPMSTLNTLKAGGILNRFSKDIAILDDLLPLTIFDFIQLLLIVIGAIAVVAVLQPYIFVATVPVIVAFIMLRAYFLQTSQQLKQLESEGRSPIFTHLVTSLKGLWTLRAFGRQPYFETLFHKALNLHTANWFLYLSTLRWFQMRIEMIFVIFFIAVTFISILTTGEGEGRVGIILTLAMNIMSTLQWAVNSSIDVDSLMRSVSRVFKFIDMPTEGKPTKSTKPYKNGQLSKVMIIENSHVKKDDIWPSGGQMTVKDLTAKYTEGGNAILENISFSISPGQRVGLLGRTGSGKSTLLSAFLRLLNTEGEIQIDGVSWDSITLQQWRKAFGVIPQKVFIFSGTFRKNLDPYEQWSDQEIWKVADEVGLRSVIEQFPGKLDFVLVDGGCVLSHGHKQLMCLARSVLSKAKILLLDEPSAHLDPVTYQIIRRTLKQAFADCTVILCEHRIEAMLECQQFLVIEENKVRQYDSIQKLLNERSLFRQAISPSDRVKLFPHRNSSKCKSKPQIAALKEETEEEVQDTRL

On to “SIN3A DsiRNA: Dicer-substrate siRNA against SIN3A, sense SEQ ID NO: 6, antisense SEQ ID NO: 7 (sense GCGAUACAUGAAUUCAGAUACUACC; antisense GGUAGUAUCUGAAUUCAUGUAUCGCUC; chemistry not given here)”, for which the “mutant CFTR at the cell surface (ELISA)” value is reported as “mutant CFTR reached the cell surface”.
`O[C@](CCN1CCCCC1)(c1ccccc1)[C@H]1CC2C=CC1C2` (mixture of isomers) [Biperiden]: the “surface display of ΔF508-CFTR (live cell-surface ELISA)” value was “increased”.
The same measure, in the same setting: with `COc1cc2ncnc(Nc3cccc(Cl)c3)c2cc1OC` [Tyrophostin (AG-1478), N-(3-chlorophenyl)-6,7-dimethoxy-4-quinazolinamine] the entry was “increased”.
For “miR-138 mimic: synthetic modified RNA duplex, sense SEQ ID NO: 4, antisense SEQ ID NO: 5, showing miR-138-like activity”, the “mutant CFTR at the cell surface (ELISA)” value is “mutant CFTR reached the cell surface”.
With `CN1CCC(=C2c3ccccc3CCc3sccc32)CC1` [Pizotifen, 4-(1-methyl-4-piperidylidine)-9, 1 0-dihydro-4H-benzo-[4,5]cyclohepta[1,2]-thiophene], the “surface display of ΔF508-CFTR (live cell-surface ELISA)” value was “increased”.
